Test results from patent US11638427B2, “Methods and compositions for altering secondary metabolites in plants” (Impello Biosciences, Inc, priority 2020, dated 2023).

Tests used:
[1] = test system: Fusarium ventricosum; assay: MDJ spray on cannabis 'Jack Herer' plants infected with Fusarium ventricosum; type: in vivo
Procedure: To investigate the efficacy of MDJ at inhibiting Fusarium ventricosum, plants of the cannabis variety ‘Jack Herer’ were infected and treated with either 1 mM or 10 mM MDJ. Briefly, after two weeks in vegetative light cycle, ‘Jack Herer’ plants were moved to flowering cycle and sprayed with 1 mM or 10 mM methyl dihydrojasmonate on 4/12/21. After 72 hours (4/15/21) all plants were infected with Fusarium ventricosum cultured on potato dextrose agar. Plants were infected using a fungal pick to inoculate the fungal culture at the stem of the plant. No visual signs of infection were observed after two weeks, so all plants were reinfected using a PDA and liquid culture of F. ventricosum on 4/28/21 and again on 5/14/21. Plants were harvested and hung to dry on 6/11/21 and dry weights recorded on 6/16/21. After harvest, stem tissue was taken from each treatment group and plated onto potato dextrose agar. Fusarium ventricosum was reisolated from each group.

[2] = test system: Botrytis spp.; assay: Mold growth on jasmonate-infused plates, mold isolated from strawberry; type: cell-based; conditions: 1 mM, 5 mM, 10 mM, or 20 mM in plates
Procedure: MDJ (TCI, CAS No.: 24851-98-7) and CJ were infused into potato dextrose agar (PDA, VWR Cat No.: 90003-494) petri dishes (100×15 mm VWR, Cat No: 25384-094) at concentrations ranging from 1 mM, 4.25 mM, and 10 mM. Each treatment was prepared using a technical grade stock solution of pure chemical (CJ or MDJ) diluted with TWEEN®-20 (VWR, CAS No.: […]). Culturable oyster mushroom and seedling mold served to create fungal mycelial plugs using a sterile 1 mL pipette tip (Eppendorf, Cat No.: 022491458) held upside down. The tips were used to make circle excisions (i.e., fungal plugs) from a mycelial mat grown on PDA with no biochemical infusions. Fungal pugs were then transferred to PDA infused with varying concentrations of CJ or MDJ, and control plates (no CJ or MDJ infusion) to monitor fungal growth at room temperature over time.
Based on the above results in Cannabis spp., additional fungi from various crops was sampled and tested. Plates comprising various concentrations of MDJ or MJ were prepared as described above.

[3] = test system: lemons; assay: Fruit MDJ dips, 2 weeks observation; type: in vivo; conditions: dip 5, 10, 20 mM for 20 seconds; 2 weeks at room temperature
Procedure: (§1) For fruit MDJ dips, all fruits were purchased from a local market as certified organic on 4/13/2021. Before any treatments, all fruits were submerged in boiling water to melt off any non-natural waxy coating then dried with a washcloth. Once fruits were clean and dry, they were submerged in varying concentrations of methyl dihydrojasmonate solutions. Each solution was prepared from a 1M MDJ Tween 20 stock solution diluted with RO water. 500 ml of each solution was prepared and reused for the different fruits. Each fruit was submerged for 20 seconds and then left to dry on a paper towel. After the fruits were dry the paper towels were removed and fruits left on the lab bench at room temperature grouped by treatment but not touching and monitored for visual differences for 2 weeks. The pineapple was the only fruit that was not fully submerged but instead sprayed till drip with the varying concentration of MDJ/Tween 20 solution. Then left to dry and monitored the same as the other fruits.
(§2) Treatments and Sample Sizes:
(§3) Control, water—4 lemons, 2 oranges, 1 pineapple, 1 mango, 4 strawberries, 2 grapes (˜10 grapes/bundle), 2 oranges, 4 avocados
(§4) [5] mM MDJ—4 lemons, 3 oranges, 1 pineapple, 1 mango, 4 strawberries, 2 grapes, 2 oranges, 4 avocados
(§5) [10] mM MDJ—4 lemons, 3 oranges, 0 pineapple, 1 mango, 4 strawberries, 2 grapes, 2 oranges, 4 avocados
(§6) [20] mM MDJ—5 lemons, 3 oranges, 1 pineapple, 1 mango, 4 strawberries, 2 grapes, 2 oranges, 4 avocados
(§7) Qualitative observations like color changes, firmness, mold appearance were monitored and at the end of the two weeks all fruits were cut in half to record and further observations. Penetrometer readings were recorded in the last week of observations.

[4] = test system: oranges; assay: Fruit MDJ dips, 2 weeks observation; type: in vivo; conditions: dip 5, 10, 20 mM
Procedure: as §1, §2, §3, §4, §5, §6, §7

[5] = test system: blood oranges; assay: Fruit MDJ dips, 2 weeks observation; type: in vivo; conditions: dip 5, 10, 20 mM; observation period 2 weeks
Procedure: as §1, §2, §3, §4, §5, §6, §7

[6] = test system: mangoes; assay: Fruit MDJ dips, 2 weeks observation; type: in vivo; conditions: one fruit per group
Procedure: as §1, §2, §3, §4, §5, §6, §7

[7] = test system: grapes; assay: Fruit MDJ dips, 2 weeks observation; type: in vivo; conditions: dip 5, 10, 20 mM
Procedure: as §1, §2, §3, §4, §5, §6, §7

[8] = test system: avocados; assay: Fruit MDJ dips, 2 weeks observation; type: in vivo
Procedure: as §1, §2, §3, §4, §5, §6, §7

CCCCCC1C(=O)CCC1CC(=O)OC (stereo not shown) [MDJ, methyl dihydrojasmonate]
flowers compared to the control ([1]; 1 mM and 10 mM spray): larger flowers | leaves compared to the control ([1]; 1 mM and 10 mM spray): more yellow, wilting leaves | plant biomass (dry weight) compared to the control group ([1]; 1 mM and 10 mM spray 72 hours before infection): prevention in biomass reduction | growth of mold isolated from strawberry [2]: effective at preventing the growth | visual differences externally or internally [3]: no distinct visual differences | mold [4]: no appearance of mold | mold [5]: no mold in any of the treatment groups | internal browning when cut open, relative to the control group ([6]; dip 5 mM): slightly less | internal browning when cut open, relative to the control group ([6]; dip 10 mM): less still | internal browning when cut open ([6]; dip 20 mM): no clear browning | mold or observable difference between groups [7]: did not exhibit any mold, or observable difference between groups | browning when the fruits were cut open ([8]; dip 5 mM): least signs of browning | external browning ([8]; dip 10 mM and 20 mM groups (and control group)): more external browning
